One assay deals with T1, Human PD-L1/PD-1 (Homo sapiens, UniProt Q9NZQ7).
T1 construct: made in house; host or cells: HEK293T
Nature of the assay: HTRF PD-1-Ig/PD-L1-His binding assay (human PD-L1). Particulars: cluster symbol; read-out: HTRF IC50 cluster. The gist of the method:
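Ig- and His-fused extracellular PD-1/PD-L1 binding in BSA/Tween-20 dPBS. HTRF with Eu anti-Ig (1 nM final) and APC anti-His (20 nM final).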

Assay [1] concerns the target T2, LK35.2-hPD-L1 cells / PE-labeled PD-1-Ig (Homo sapiens, UniProt Q9NZQ7).
T2 construct: expressed in transfected cells; host or cells: LK35.2 mouse B cell line
In words: LK35.2-hPD-L1 cell binding high-content screening assay. The class given is cell-based. The following applies: cluster symbol, read-out: CBA IC50 cluster. The gist of the method: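 Fluorescent PD-1-Ig binding to PD-L1-expressing LK35.2 cells, imaged after washing. Conditions: 1 nM PE-PD-1-Ig, 37 °C, 1 h, RPMI with 10% fetal calf serum.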

Setting [2] is: cell binding assay, cell line not given.
Setting [3] is: cell line of CBA not given (LK35.2-hPD-L1 or 293T-hPD-L1).

As a reminder, the pIC50 is −log10 of the IC50, conventionally taken in molar units.

SMILES strings stand for the structures. pIC50: −log10 of the molar value. Read-outs that look alike come from different tables or passages of the source. Positions of bridges follow the written chain, without caps; N, C: chain ends. Non-standard residues stand in square brackets, D forms with d. Residues, ends and D or L forms follow the SMILES beside them. ξ: configuration not given here. *: point of attachment. Pro(trans-4-cHex) = O=C(O)[C@@H]1C[C@@H](C2CCCCC2)CN1; Phe(3,4,5-F3) = N[C@@H](Cc1cc(F)c(F)c(F)c1)C(=O)O; Phe(4-CONH2) = NC(=O)c1ccc(C[C@H](N)C(=O)O)cc1; Phe(4-NH2) = Nc1ccc(C[C@H](N)C(=O)O)cc1; Bta = N[C@@H](Cc1csc2ccccc12)C(=O)O; Hyp = O=C(O)[C@@H]1C[C@@H](O)CN1; NMeF = CN[C@@H](Cc1ccccc1)C(=O)O; NMeE = CN[C@@H](CCC(=O)O)C(=O)O; dHyp = O=C(O)[C@H]1C[C@H](O)CN1; NMeNle = CCCC[C@H](NC)C(=O)O; NMeS = CN[C@@H](CO)C(=O)O; Pip = O=C(O)[C@@H]1CCCCN1; dPip = O=C(O)[C@H]1CCCCN1; NMeA = CN[C@@H](C)C(=O)O; Orn = NCCC[C@H](N)C(=O)O; Dab = NCC[C@H](N)C(=O)O; Dap = NC[C@H](N)C(=O)O; Bn = c1ccc(C*)cc1; ξC = NC(CS)C(=O)O; Sar = CNCC(=O)O

T1 sequence (Q9NZQ7 with tags, fused parts or gaps): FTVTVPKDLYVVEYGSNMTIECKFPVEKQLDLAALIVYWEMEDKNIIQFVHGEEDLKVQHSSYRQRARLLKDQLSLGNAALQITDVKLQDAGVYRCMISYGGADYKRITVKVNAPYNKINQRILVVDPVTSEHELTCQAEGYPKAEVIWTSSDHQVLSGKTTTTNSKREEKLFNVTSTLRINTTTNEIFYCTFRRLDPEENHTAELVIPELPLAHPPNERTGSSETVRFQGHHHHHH
T2 sequence (Q9NZQ7 19-290): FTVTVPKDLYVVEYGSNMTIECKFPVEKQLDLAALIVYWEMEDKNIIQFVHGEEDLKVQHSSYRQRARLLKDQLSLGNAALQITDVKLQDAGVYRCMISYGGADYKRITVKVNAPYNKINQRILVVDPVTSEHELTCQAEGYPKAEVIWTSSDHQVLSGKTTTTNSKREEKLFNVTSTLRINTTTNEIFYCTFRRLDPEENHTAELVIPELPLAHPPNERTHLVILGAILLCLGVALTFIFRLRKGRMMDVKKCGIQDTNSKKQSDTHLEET

Take `CCCC[C@H]1C(=O)N(C)[C@@H](CO)C(=O)N[C@@H](CCCNC(=N)N)C(=O)NC(C(=O)NCC(N)=O)CSCC(=O)N[C@@H](Cc2ccc(O)cc2)C(=O)N(C)[C@@H](C)C(=O)N[C@@H](CC(N)=O)C(=O)N2CCC[C@H]2C(=O)N[C@@H](Cc2cnc[nH]2)C(=O)N[C@@H](CC(C)C)C(=O)N2C[C@H](O)C[C@H]2C(=O)N[C@@H](Cc2c[nH]c3ccccc23)C(=O)N[C@@H](CO)C(=O)N[C@@H](Cc2csc3ccccc23)C(=O)N1C` (some centres unmarked) [Example 9033] ({CH2CO}-Y[NMeA]NPHL[Hyp]WS[Bta][NMeNle][NMeS]R[ξC]G-NH2; thioether N-14): the pIC50 at Human PD-L1/PD-1 was 7.52 to 8.17; in assay [1] (setting [2]), 8.33 to 9.80.

With `CCCC[C@H]1C(=O)N(C)[C@@H](CCCC)C(=O)N[C@@H](CCCNC(=N)N)C(=O)N[C@H](C(=O)NCC(N)=O)CSCC(=O)N[C@@H](Cc2ccc(O)cc2)C(=O)N2CCCC[C@H]2C(=O)N[C@@H](CC(N)=O)C(=O)N2CCC[C@H]2C(=O)N[C@@H](CN)C(=O)N[C@@H](CC(C)C)C(=O)N2C[C@H](O)C[C@H]2C(=O)N[C@@H](Cc2c[nH]c3ccccc23)C(=O)N[C@@H](CO)C(=O)N[C@@H](Cc2c[nH]c3ccccc23)C(=O)N1C` [Example 1236] ({CH2CO}-Y[Pip]NP[Dap]L[Hyp]WSW[NMeNle][NMeNle]RCG-NH2; thioether N-14), the pIC50 at Human PD-L1/PD-1 was 7.52 to 8.17; in assay [1] (setting [3]), 8.33 to 9.80.

For `CCCC[C@H]1C(=O)N(C)CC(=O)N[C@@H](CC(=O)O)C(=O)N[C@@H](C(C)C)C(=O)N(C)[C@@H](Cc2ccccc2)C(=O)N[C@@H](CCCNC(=N)N)C(=O)N(C)CC(=O)N[C@@H](Cc2c[nH]c3ccccc23)C(=O)N[C@@H](Cc2ccc(O)cc2)C(=O)N[C@@H](CC(C)C)C(=O)N[C@H](C(=O)NCC(N)=O)CSCC(=O)N[C@@H](Cc2ccccc2)C(=O)N(C)[C@@H](Cc2ccccc2)C(=O)N1C` [Example 3506] (HELM PEPTIDE1{[O=C(C[*:3])[*:2]].F.[meF].[CCCC[C@@H](C(=O)[*:2])N(C)[*:1]].[Sar].D.V.[meF].R.[Sar].W.Y.L.C.G.[am]}$PEPTIDE1,PEPTIDE1,1:R3-14:R3$$$V2.0), the negative-log IC50 (pIC50) at Human PD-L1/PD-1 is 8.17 to 9.41; in assay [1] (setting [2]), 7.14 to 8.32.

With `CC(C)C[C@@H]1NC(=O)[C@H](Cc2cnc[nH]2)NC(=O)[C@@H]2CCCN2C(=O)[C@H](CC(N)=O)NC(=O)[C@H](C)N(C)C(=O)[C@H](Cc2ccccc2)NC(=O)CSC[C@@H](C(=O)NCC(N)=O)NC(=O)[C@H](CCCNC(=N)N)NC(=O)[C@H](COCc2ccccc2)N(C)C(=O)[C@H](C)N(C)C(=O)[C@H](Cc2c[nH]c3ccccc23)NC(=O)[C@H](CO)NC(=O)[C@H](Cc2c[nH]c3ccccc23)NC(=O)CN(C)C1=O` [Example 6015] ({CH2CO}-F[NMeA]NPHL[Sar]WSW[NMeA][NMeS](Bn)RCG-NH2; thioether N-14), the figures for the pIC50 (at Human PD-L1/PD-1; in assay [1] (setting [2])) were less than 7.52 and 7.14 to 8.32, respectively.

For the compound `CCCC[C@H]1C(=O)N(C)[C@@H](CCCC)C(=O)N[C@@H](CCCNC(=N)N)C(=O)NC(C(=O)NCC(N)=O)CSCC(=O)N[C@@H](Cc2ccc(O)cc2)C(=O)N(C)[C@@H](CO)C(=O)N[C@@H](CC(N)=O)C(=O)N2CCC[C@H]2C(=O)N[C@@H](Cc2cnc[nH]2)C(=O)N[C@@H](CC(C)C)C(=O)N2CCC[C@H]2C(=O)N[C@@H](Cc2c[nH]c3ccccc23)C(=O)N[C@@H](CO)C(=O)N[C@@H](Cc2c[nH]c3ccccc23)C(=O)N1C` (some centres unmarked) [Example 9038] ({CH2CO}-Y[NMeS]NPHLPWSW[NMeNle][NMeNle]R[ξC]G-NH2; thioether N-14), the pIC50 was 7.52 to 8.17 at Human PD-L1/PD-1 and 7.14 to 8.32 in assay [1] (setting [2]).

Take `CCCC[C@H]1C(=O)N(C)CC(=O)N[C@@H](CC(=O)O)C(=O)N[C@@H](C(C)C)C(=O)N(C)[C@@H](Cc2ccccc2)C(=O)N[C@@H](Cc2ccc(O)cc2)C(=O)N(C)CC(=O)N[C@H](Cc2c[nH]c3ccccc23)C(=O)N[C@@H](Cc2ccc(O)cc2)C(=O)N[C@@H](CC(C)C)C(=O)N[C@H](C(=O)NCC(N)=O)CSCC(=O)N[C@@H](Cc2ccccc2)C(=O)N(C)[C@@H](Cc2ccccc2)C(=O)N1C` [Example 3563] (HELM PEPTIDE1{[O=C(C[*:3])[*:2]].F.[meF].[CCCC[C@@H](C(=O)[*:2])N(C)[*:1]].[Sar].D.V.[meF].Y.[Sar].[dW].Y.L.C.G.[am]}$PEPTIDE1,PEPTIDE1,1:R3-14:R3$$$V2.0): the pIC50 at Human PD-L1/PD-1 was less than 7.52; in assay [1] (setting [2]), less than 7.13.

`CCCC[C@H]1C(=O)N(C)[C@@H](CCCC)C(=O)N[C@@H](CCCNC(=N)N)C(=O)N[C@H](C(=O)NCC(N)=O)CSCC(=O)N[C@@H](Cc2ccc(C(N)=O)cc2)C(=O)N(C)[C@@H](C)C(=O)N[C@@H](CC(N)=O)C(=O)N2CCC[C@H]2C(=O)N[C@@H](CN)C(=O)N[C@@H](CC(C)C)C(=O)N2C[C@H](O)C[C@H]2C(=O)N[C@@H](Cc2c[nH]c3ccccc23)C(=O)N[C@@H](CO)C(=O)N[C@@H](Cc2c[nH]c3ccccc23)C(=O)N1C` [Example 7041] ({CH2CO}-[Phe(4-CONH2)][NMeA]NP[Dap]L[Hyp]WSW[NMeNle][NMeNle]RCG-NH2; thioether N-14): the pIC50 was 7.52 to 8.17 on Human PD-L1/PD-1 and 7.14 to 8.32 in assay [1] (setting [2]).

Take `CCCC[C@H]1C(=O)N(C)[C@@H](CCCC)C(=O)N[C@@H](CCN)C(=O)N[C@H](C(=O)NCC(N)=O)CSCC(=O)N[C@@H](Cc2ccc(O)cc2)C(=O)N(C)[C@@H](C)C(=O)N[C@@H](CC(N)=O)C(=O)N2CCC[C@H]2C(=O)N[C@@H](Cc2c[nH]cn2)C(=O)N[C@@H](CCC(=O)O)C(=O)N2C[C@H](C3CCCCC3)C[C@H]2C(=O)N[C@@H](Cc2c[nH]c3ccccc23)C(=O)N[C@@H](CCN)C(=O)N[C@@H](Cc2c[nH]c3ccccc23)C(=O)N1C` [Example 14005] ({CH2CO}-Y[NMeA]NPHE[Pro(trans-4-cHex)]W[Dab]W[NMeNle][NMeNle][Dab]CG-NH2; thioether N-14): the pIC50 is 8.17 to 9.41 at Human PD-L1/PD-1 and 8.33 to 9.80 in assay [1] (setting [2]).

Consider `CCCC[C@H]1C(=O)N(C)CC(=O)N[C@@H](CC(=O)O)C(=O)N[C@@H](C(C)C)C(=O)N(C)[C@@H](Cc2ccccc2)C(=O)N[C@@H](Cc2ccc(O)cc2)C(=O)N(C)[C@@H](CCC(=O)O)C(=O)N[C@@H](Cc2csc3ccccc23)C(=O)N[C@@H](Cc2ccc(O)cc2)C(=O)N[C@@H](CC(C)C)C(=O)N[C@H](C(=O)NCC(N)=O)CSCC(=O)N[C@@H](Cc2ccccc2)C(=O)N(C)[C@@H](Cc2ccccc2)C(=O)N1C` [Example 3073] ({CH2CO}-F[NMeF][NMeNle][Sar]DV[NMeF]Y[NMeE][Bta]YLCG-NH2; thioether N-13), for which the pIC50 at Human PD-L1/PD-1 was 8.17 to 9.41; in assay [1] (setting [3]) it was 7.14 to 8.32.

On to `CCCC[C@H]1C(=O)N2C[C@@H](O)C[C@@H]2C(=O)N[C@@H](CC(N)=O)C(=O)N[C@@H](C(C)C)C(=O)N(C)[C@@H](Cc2ccccc2)C(=O)N[C@@H](Cc2ccc(O)cc2)C(=O)N2CCCC[C@@H]2C(=O)N[C@@H](Cc2c[nH]c3ccccc23)C(=O)N[C@@H](Cc2ccc(O)cc2)C(=O)N[C@@H](CCCN)C(=O)N[C@H](C(=O)NCC(N)=O)CSCC(=O)N[C@@H](Cc2cc(F)c(F)c(F)c2)C(=O)N(C)[C@@H](Cc2ccccc2)C(=O)N1C` [Example 3613] ({CH2CO}-[Phe(3,4,5-F3)][NMeF][NMeNle][dHyp]NV[NMeF]Y[dPip]WY[Orn]CG-NH2; thioether N-13), for which the pIC50 at Human PD-L1/PD-1 was 8.17 to 9.41; in assay [1] (setting [2]) it was 8.33 to 9.80.

Consider `CCCC[C@H]1C(=O)N(C)[C@@H](CCCC)C(=O)N[C@@H](CO)C(=O)N[C@H](C(=O)NCC(N)=O)CSCC(=O)N[C@@H](Cc2ccc(O)cc2)C(=O)N(C)[C@@H](C)C(=O)N[C@@H](CO)C(=O)N2CCC[C@H]2C(=O)N[C@@H](CO)C(=O)N[C@@H](CO)C(=O)N2C[C@H](O)C[C@H]2C(=O)N[C@@H](Cc2c[nH]c3ccccc23)C(=O)N[C@@H](CO)C(=O)N[C@@H](Cc2c[nH]c3ccccc23)C(=O)N1C` [Example 5135] ({CH2CO}-Y[NMeA]SPSS[Hyp]WSW[NMeNle][NMeNle]SCG-NH2; thioether N-14), for which the pIC50 was 7.52 to 8.17 at Human PD-L1/PD-1 and 7.14 to 8.32 in assay [1] (setting [2]).

As to `CCCC[C@H]1C(=O)N(C)[C@@H](CCCC)C(=O)N[C@@H](CCCNC(=N)N)C(=O)N[C@H](C(=O)NCC(N)=O)CSCC(=O)N[C@@H](Cc2ccc(N)cc2)C(=O)N(C)[C@@H](C)C(=O)N[C@@H](CC(N)=O)C(=O)N2CCC[C@H]2C(=O)N[C@@H](Cc2cnc[nH]2)C(=O)N[C@@H](CC(C)C)C(=O)N2C[C@H](O)C[C@H]2C(=O)N[C@@H](Cc2c[nH]c3ccccc23)C(=O)N[C@@H](CO)C(=O)N[C@@H](Cc2c[nH]c3ccccc23)C(=O)N1C` [Example 7059] ({CH2CO}-[Phe(4-NH2)][NMeA]NPHL[Hyp]WSW[NMeNle][NMeNle]RCG-NH2; thioether N-14), the pIC50 on Human PD-L1/PD-1 is 8.17 to 9.41; in assay [1] (setting [2]), 7.14 to 8.32.

Consider `CCCC[C@H]1C(=O)N(C)[C@@H](CCCC)C(=O)N[C@@H](CC(C)C)C(=O)N[C@H](C(=O)NCC(N)=O)CSCC(=O)N[C@@H](Cc2ccc(O)cc2)C(=O)N(C)[C@@H](C)C(=O)N[C@@H](CC(N)=O)C(=O)N2CCC[C@H]2C(=O)N[C@@H](CO)C(=O)N[C@@H](CCC(N)=O)C(=O)N2C[C@H](O)C[C@H]2C(=O)N[C@@H](Cc2c[nH]c3ccccc23)C(=O)N[C@@H](CO)C(=O)N[C@@H](Cc2c[nH]c3ccccc23)C(=O)N1C` [Example 5115] ({CH2CO}-Y[NMeA]NPSQ[Hyp]WSW[NMeNle][NMeNle]LCG-NH2; thioether N-14), for which the figures for the pIC50 (at Human PD-L1/PD-1; in assay [1] (setting [2])) were 8.17 to 9.41 and 8.33 to 9.80, respectively.
